From patent US20210228467A1, “High-Potency Vitamin C Topical Formulations” (Baek Clinical Inc., priority 2018, published 2021)
Where two headings read alike, the source gives them in different places.

Key:
[1] = use of 4% HQ versus 5% Vitamin C; cited from earlier work
[2] = Solubility of optional additional components in polyol solvents; format: physicochemical
Text: Additional ingredients were chosen for their compatibility with (e.g., miscibility in) 1,3 propanediol, 1,2 propanediol, and 1,3 butanediol.

[3] = cited from earlier work
[4] = Solubilization / recrystallization of AA with urea in 1,3 propanediol; format: physicochemical
Text: Next, concentrations of ascorbic acid beyond the aforementioned maximum concentration are solubilized, using urea as a co-solvent.

[5] = Comparative studies: solubilization with heating and crystallization on room temperature storage; format: physicochemical; conditions: ascorbic acid together with urea in propylene glycol, butylene glycol and propanediol
Experimental: This example was reproduced.
All mixtures were heated to 85° C.

[6] = 20% urea solution, cited from earlier work

Question: For `O=C1O[C@H]([C@@H](O)CO)C(O)=C1O` [AA, L-ascorbic acid], which improvement [1] is on record?
Answer: The improvement was 62.5%.

Question: Which solubility ([2]; in 1,3 propanediol, 1,2 propanediol and 1,3 butanediol at 0.5-1%) does the source give for `COc1cc(CC(C(C)=O)C(C)=O)ccc1O` [Acetyl zingerone] here?
Answer: The solubility was “readily soluble”.

Question: Which concentration solubilized ([2]; in 1,3 propanediol) does the source give for `O=C(O)CCCCCCCC(=O)O` [AzA, Azelaic acid, reference compound] here?
Answer: Its concentration solubilized is “up to 10%”.

Question: What about the concentration solubilized ([2]; with 10% AA, 5% U in a 1,3 propanediol base) of the same molecule?
Answer: Its concentration solubilized is 7.5%.

Question: What about the pKa [3] of the same molecule?
Answer: The pKa was 4.15.

Question: Which results are given for `Oc1ccc(O)cc1` [HQ, hydroquinone]?
Answer: improvement [1]: 93%; side-effects [1]: 68.7%

Question: What does the source list for `NC(N)=O` [U, urea]?
Answer: minimum amount U required to solubilize 20% AA [4]: ~10%; saturation of U reached before recrystallization of U [4]: ~27.8%; maximum concentrations soluble before urea starts to precipitate (the ceiling) [5]: 20%; pH ([6]; after 11 months at room temperature): 8.8; pH ([6]; start): 7.4

Question: With `CC1(C)[C@@H](O[C@H]2O[C@H](C(=O)O)[C@@H](O)[C@H](O)[C@H]2O[C@@H]2O[C@H](C(=O)O)[C@@H](O)[C@H](O)[C@H]2O)CC[C@]2(C)[C@H]3C(=O)C=C4[C@@H]5C[C@@](C)(C(=O)O)CC[C@]5(C)CC[C@@]4(C)[C@]3(C)CC[C@@H]12` [glycyrrhizic acid, Glycyrrhizic acid] as the molecule, how does the solubility ([2]; in 1,3-propanediol) read?
Answer: The solubility was “shows solubility”.

Question: Which solubility ([2]; at a concentration of 0.2% in 1,3 propanediol, 1,2 propanediol and 1,3 butanediol) does the source give for Madecassoside here?
Answer: The solubility was “soluble”.
